{"source": "patent US20110251286A1", "about": "“Crystalline salts and/or co-crystals of O-desmethyltramadol” (GRUENENTHAL GmbH, priority 2010, published 2011)", "key": {"[1]": {"test": "Determination of equilibrium solubilities in aqueous solutions at various pHs", "settings": "thermodynamic from solid", "procedure": "The equilibrium solubilities of the compounds investigated were determined in aqueous solutions at various pHs and the pH-dependent solubility profile and the solubilities at different pHs were compared here. In this case, the content determination was carried out by means of capillary electrophoresis."}, "[2]": {"test": "Release in artificial intestinal juice", "type": "physicochemical", "settings": "after two to 4 minutes; artificial intestinal juice pH 6.8, 37 °C", "procedure": "Investigations on release were carried out in a Sotax AT7 smart release apparatus with UV measurement (Perkin Elmer photometer).\nA vessel with Wood apparatus was used (for intrinsic release).\nA pressing of 0.5 cm^2 surface area (diameter 8 mm) was produced with a force of 200 N using approximately 100 mg of active ingredient.\nRelease was carried out in a release medium, which is composed as described below: • Intestinal juice without pancreas powder, pH 6.8 (analogous to Ph. Eur.); 250.0 ml 6.8 g of potassium dihydrogenphosphate R+0.896 g of NaOH+water to 1000.0 ml.\nRelease was carried out in a release volume of in each case 500±5 ml at a temperature of the release medium of 37±1° C. with a stirring speed of 100±5 rpm.\nThe content determination was carried out by means of spectroscopic methods (UV spectroscopy, wavelength: 271 nm, cuvette: 10 mm). Sample taking was carried out manually.\nIn this release experiment, the individual compounds were placed in a permeable bag in an amount in each case calculated on 100 mg of the free base.\nThe results, expressed in percent of the substance released, are reproduced in the following tables. In this case, the compounds denote: HCl: hydrochloride; A: cinnamate; B: palmitate; C: decanoate; E: hemi-fumarate and F: hemi-sebacate."}}}
{"smiles": "CN(C)C[C@H]1CCCC[C@]1(O)c1cccc(O)c1.Cl", "note": "[hydrochloride, (+)-(1R,2R)-3-[2-(dimethylamino)methyl-1-hydroxycyclohexyl]phenol hydrochloride]", "values": [{"measurement": "solubility thermodynamic", "setting": "[1]; aqueous with cosolvent or surfactant or cyclodextrin", "result": 1090, "unit": "mM"}, {"measurement": "solubility thermodynamic", "setting": "[1]; pH 1.4, simulated gastric fluid", "result": 582, "unit": "mM"}, {"measurement": "solubility thermodynamic", "setting": "[1]; pH 4.3, aqueous buffer", "result": 666, "unit": "mM"}, {"measurement": "solubility thermodynamic", "setting": "[1]; pH 6.8, aqueous buffer", "result": 698, "unit": "mM"}, {"measurement": "solubility thermodynamic", "setting": "[1]; pH 7.4, aqueous buffer", "result": 867, "unit": "mM"}, {"measurement": "solubility thermodynamic", "setting": "[1]; pH 11, aqueous buffer", "result": 979, "unit": "mM"}, {"measurement": "solubility thermodynamic", "setting": "[1]; water", "result": 983, "unit": "mM"}, {"measurement": "substance passed into the artificial intestinal fluid", "setting": "[2]", "result": "~100", "unit": "%"}]}
